Drawing on patent US9173400B2, “Anthranilamide arthropodicide treatment” (E I DU PONT DE NEMOURS AND COMPANY, priority 2001, dated 2015), this text covers melting point for four compounds.

The term melting point denotes the temperature of the solid-liquid transition.

Molecules are shown by their SMILES.

As to `CNC(=O)c1cc(Cl)cc(C)c1NC(=O)c1cc(OCC(F)(F)F)nn1-c1ncccc1Cl`, the melting point fell in the range of 215 to 217 °C.
The value for `CNC(=O)c1cc(Cl)cc(C)c1NC(=O)c1cc(Cl)nn1-c1ncccc1Cl` was 205 to 207 °C; that for `CCn1nc(C(F)(F)F)cc1NC(=O)c1c(C)cccc1C(=O)NC(C)C` [Example 1, 2-[1-Ethyl-3-trifluoromethylpyrazol-5-ylcarbamoyl]-3-methyl-N-(1-methylethyl)benzamide] was 200 to 204 °C; that for `Cc1cccc(C(=O)NC(C)C)c1NC(=O)c1cc(C(F)(F)F)nn1-c1ncccc1C(F)(F)F` [Example 3, N-[2-Methyl-6-[[(1-methylethyl)amino]carbonyl]phenyl]-3-(trifluoromethyl)-1-[3-(trifluoromethyl)-2-pyridinyl]-1H-pyrazole-5-carboxamide] was 233 to 235 °C.
